Source: ChEMBL document CHEMBL1146877, “D609 blocks cell survival and induces apoptosis in neural stem cells” (Bioorg Med Chem Lett, 2006)
The source made the active and inactive calls. No cut-off for these calls is given here.

Legend:
Type in all cases: functional, cell-based
Details in all cases: Rattus norvegicus
NSC [1] = experiment: Inhibition of reactive oxygen species accumulation in NSC cells relative to control
NSC [2] = experiment: Decrease in viability of NSC cells at 56.29 uM for 72 hrs in presence of bFGF
NSC [3] = experiment: Induction of necrosis in NSC cells assessed as lactate dehydrogenase release at 56.29 uM within 72 hrs relative to control
NSC [4] = experiment: Decrease in viability of NSC cells at 37.53 uM for 48 hrs in presence of bFGF
NSC [5] = experiment: Induction of apoptosis in NSC cells by TUNEL assay
NSC [6] = experiment: Decrease in viability of NSC cells at 18.76 uM for 24 hrs in presence of bFGF

## S=C(S)OC1CC2CC1C1CCCC21 (stereo unspecified)
NSC [1]
  Activity: Active
NSC [2]
  Activity: Active
NSC [3]
  Activity: inactive
NSC [4]
  Activity: Active
NSC [5]
  Activity: Active
NSC [6]
  Activity: Active
